ChEMBL document CHEMBL3871274 (Eur J Med Chem, 2016)

Tests used:
[1] = Growth inhibition of human HCT116 cells after 96 hrs by MTS assay; assay type: functional; conditions: HCT-116, 96 h
[2] = target: T1, Aurora kinase B (Homo sapiens, UniProt Q96GD4)
[3] = target: Tyrosine-protein kinase ABL1 (Homo sapiens) (UniProt P00519); assay: Inhibition of human recombinant full-length His-tagged ABL1 cytoplasmic domain expressed in baculovirus expression system at 1 uM
[4] = target: T1, Aurora kinase B; assay: Inhibition of human recombinant full-length His-tagged Aurora B expressed in baculovirus expression system at 1 uM
[5] = target: Aurora kinase C (Homo sapiens) (UniProt Q9UQB9); assay: Inhibition of human recombinant full-length GST-tagged Aurora C expressed in baculovirus expression system at 1 uM
[6] = target: Cyclin-dependent kinase 1 (Homo sapiens) (UniProt P06493); assay: Inhibition of CDK1 (unknown origin) at 1 uM
[7] = target: Cyclin-dependent kinase 2 (Homo sapiens) (UniProt P24941); assay: Inhibition of CDK2 (unknown origin) at 1 uM
[8] = target: Serine/threonine-protein kinase Chk1 (Homo sapiens) (UniProt O14757); assay: Inhibition of human recombinant full-length His-tagged CHK1 expressed in baculovirus expression system at 1 uM
[9] = target: Serine/threonine-protein kinase Chk2 (Homo sapiens) (UniProt O96017); assay: Inhibition of human recombinant full-length His-tagged CHK2 expressed in baculovirus expression system at 1 uM
Chain of Serine/threonine-protein kinase Chk2 (Homo sapiens) (O96017 whole entry, the tested form may be a part): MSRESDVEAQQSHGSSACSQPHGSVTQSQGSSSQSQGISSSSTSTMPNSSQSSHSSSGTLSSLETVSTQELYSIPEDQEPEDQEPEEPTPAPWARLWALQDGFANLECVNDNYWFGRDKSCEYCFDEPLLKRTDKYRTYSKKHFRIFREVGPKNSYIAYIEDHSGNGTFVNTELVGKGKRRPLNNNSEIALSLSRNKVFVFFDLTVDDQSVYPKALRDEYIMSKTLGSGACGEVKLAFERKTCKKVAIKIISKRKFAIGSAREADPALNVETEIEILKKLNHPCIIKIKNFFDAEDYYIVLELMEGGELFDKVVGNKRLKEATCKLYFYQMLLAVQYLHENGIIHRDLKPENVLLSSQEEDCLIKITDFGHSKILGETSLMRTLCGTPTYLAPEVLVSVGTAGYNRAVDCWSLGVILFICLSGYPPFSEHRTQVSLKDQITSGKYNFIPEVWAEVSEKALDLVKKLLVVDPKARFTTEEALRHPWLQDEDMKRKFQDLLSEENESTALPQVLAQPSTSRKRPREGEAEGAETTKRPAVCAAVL

[10] = target: Vascular endothelial growth factor receptor 1 (Homo sapiens, UniProt P17948); assay: Inhibition of human recombinant GST-tagged FLT1 cytoplasmic domain (781 to 1338 residues) expressed in baculovirus expression system at 1 uM
[11] = target: Receptor-type tyrosine-protein kinase FLT3 (Homo sapiens) (UniProt P36888); assay: Inhibition of human recombinant His-tagged FLT3 cytoplasmic domain (564 to 958 residues) expressed in baculovirus expression system at 1 uM
[12] = target: Vascular endothelial growth factor receptor 3 (Homo sapiens, UniProt P35916); assay: Inhibition of human recombinant GST-tagged FLT4 cytoplasmic domain (800 to 1297 residues) expressed in baculovirus expression system at 1 uM
[13] = target: Tyrosine-protein kinase JAK1 (Homo sapiens) (UniProt P23458); assay: Inhibition of human recombinant GST-tagged JAK1 cytoplasmic domain (866 to 1154 residues) expressed in baculovirus expression system at 1 uM
[14] = target: Vascular endothelial growth factor receptor 2 (Homo sapiens, UniProt P35968); assay: Inhibition of human recombinant His-tagged KDR cytoplasmic domain (789 to 1356 residues) expressed in baculovirus expression system at 1 uM
[15] = target: Mast/stem cell growth factor receptor Kit (Homo sapiens) (UniProt P10721); assay: Inhibition of human recombinant His-tagged KIT cytoplasmic domain (544 to 976 residues) expressed in baculovirus expression system at 1 uM
[16] = target: High affinity nerve growth factor receptor (Homo sapiens) (UniProt P04629); assay: Inhibition of human recombinant His-tagged NTRK1 cytoplasmic domain (441 to 796 residues) expressed in baculovirus expression system at 1 uM
Chain of High affinity nerve growth factor receptor (Homo sapiens) (P04629 33-796 limits assumed): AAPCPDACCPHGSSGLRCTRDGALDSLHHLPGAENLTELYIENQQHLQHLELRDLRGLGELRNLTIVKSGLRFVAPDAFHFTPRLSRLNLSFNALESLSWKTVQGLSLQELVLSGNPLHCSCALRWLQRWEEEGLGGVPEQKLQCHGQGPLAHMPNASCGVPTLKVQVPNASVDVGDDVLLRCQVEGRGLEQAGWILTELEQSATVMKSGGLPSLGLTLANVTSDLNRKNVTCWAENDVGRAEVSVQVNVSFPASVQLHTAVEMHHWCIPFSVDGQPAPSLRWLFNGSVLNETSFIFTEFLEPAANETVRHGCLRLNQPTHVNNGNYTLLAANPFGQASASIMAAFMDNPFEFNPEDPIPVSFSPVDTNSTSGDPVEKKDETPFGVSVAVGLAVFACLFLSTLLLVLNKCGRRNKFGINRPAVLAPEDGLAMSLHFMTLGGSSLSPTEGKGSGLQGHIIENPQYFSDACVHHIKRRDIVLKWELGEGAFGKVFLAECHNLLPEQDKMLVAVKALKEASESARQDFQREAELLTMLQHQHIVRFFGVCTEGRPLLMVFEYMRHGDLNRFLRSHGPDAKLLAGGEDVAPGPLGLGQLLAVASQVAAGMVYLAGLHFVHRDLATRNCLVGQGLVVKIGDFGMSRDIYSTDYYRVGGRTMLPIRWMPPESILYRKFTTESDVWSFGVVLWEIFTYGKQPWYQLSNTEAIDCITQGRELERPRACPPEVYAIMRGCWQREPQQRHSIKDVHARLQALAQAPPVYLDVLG

[17] = target: Platelet-derived growth factor receptor alpha (Homo sapiens) (UniProt P16234); assay: Inhibition of human recombinant GST-tagged PDGFRalpha cytoplasmic domain (550 to 1089 residues) expressed in baculovirus expression system at 1 uM
[18] = target: Platelet-derived growth factor receptor beta (Homo sapiens) (UniProt P09619); assay: Inhibition of human recombinant His-tagged PDGFRbeta cytoplasmic domain (558 to 1106 residues) expressed in baculovirus expression system at 1 uM
[19] = target: Phosphatidylinositol 4-phosphate 3-kinase C2 domain-containing subunit alpha (Homo sapiens) (UniProt O00443); assay: Inhibition of human recombinant N-terminal GST-tagged PIK3C2A catalytic domain expressed in baculovirus expression system at 1 uM
[20] = target: Phosphatidylinositol 4-phosphate 3-kinase C2 domain-containing subunit beta (Homo sapiens) (UniProt O00750); assay: Inhibition of human recombinant N-terminal GST-tagged PIK3C2B (155 to 1383 residues) catalytic domain expressed in baculovirus expression system at 1 uM
[21] = target: Rho-associated protein kinase 1 (Homo sapiens) (UniProt Q13464); assay: Inhibition of human recombinant GST-tagged ROCK1 catalytic domain (1 to 535 residues) expressed in baculovirus expression system at 1 uM
[22] = target: Proto-oncogene tyrosine-protein kinase receptor Ret (Homo sapiens) (UniProt P07949); assay: Inhibition of human recombinant GST-tagged RET cytoplasmic domain (658 to 1114 residues) expressed in baculovirus expression system at 1 uM
[23] = target: Rho-associated protein kinase 2 (Homo sapiens) (UniProt O75116); assay: Inhibition of human recombinant N-terminal GST-tagged ROCK2 catalytic domain (1 to 552 residues) expressed in baculovirus expression system at 1 uM
Chain of Rho-associated protein kinase 2 (Homo sapiens) (O75116 whole entry, looked up, the tested form may be a part): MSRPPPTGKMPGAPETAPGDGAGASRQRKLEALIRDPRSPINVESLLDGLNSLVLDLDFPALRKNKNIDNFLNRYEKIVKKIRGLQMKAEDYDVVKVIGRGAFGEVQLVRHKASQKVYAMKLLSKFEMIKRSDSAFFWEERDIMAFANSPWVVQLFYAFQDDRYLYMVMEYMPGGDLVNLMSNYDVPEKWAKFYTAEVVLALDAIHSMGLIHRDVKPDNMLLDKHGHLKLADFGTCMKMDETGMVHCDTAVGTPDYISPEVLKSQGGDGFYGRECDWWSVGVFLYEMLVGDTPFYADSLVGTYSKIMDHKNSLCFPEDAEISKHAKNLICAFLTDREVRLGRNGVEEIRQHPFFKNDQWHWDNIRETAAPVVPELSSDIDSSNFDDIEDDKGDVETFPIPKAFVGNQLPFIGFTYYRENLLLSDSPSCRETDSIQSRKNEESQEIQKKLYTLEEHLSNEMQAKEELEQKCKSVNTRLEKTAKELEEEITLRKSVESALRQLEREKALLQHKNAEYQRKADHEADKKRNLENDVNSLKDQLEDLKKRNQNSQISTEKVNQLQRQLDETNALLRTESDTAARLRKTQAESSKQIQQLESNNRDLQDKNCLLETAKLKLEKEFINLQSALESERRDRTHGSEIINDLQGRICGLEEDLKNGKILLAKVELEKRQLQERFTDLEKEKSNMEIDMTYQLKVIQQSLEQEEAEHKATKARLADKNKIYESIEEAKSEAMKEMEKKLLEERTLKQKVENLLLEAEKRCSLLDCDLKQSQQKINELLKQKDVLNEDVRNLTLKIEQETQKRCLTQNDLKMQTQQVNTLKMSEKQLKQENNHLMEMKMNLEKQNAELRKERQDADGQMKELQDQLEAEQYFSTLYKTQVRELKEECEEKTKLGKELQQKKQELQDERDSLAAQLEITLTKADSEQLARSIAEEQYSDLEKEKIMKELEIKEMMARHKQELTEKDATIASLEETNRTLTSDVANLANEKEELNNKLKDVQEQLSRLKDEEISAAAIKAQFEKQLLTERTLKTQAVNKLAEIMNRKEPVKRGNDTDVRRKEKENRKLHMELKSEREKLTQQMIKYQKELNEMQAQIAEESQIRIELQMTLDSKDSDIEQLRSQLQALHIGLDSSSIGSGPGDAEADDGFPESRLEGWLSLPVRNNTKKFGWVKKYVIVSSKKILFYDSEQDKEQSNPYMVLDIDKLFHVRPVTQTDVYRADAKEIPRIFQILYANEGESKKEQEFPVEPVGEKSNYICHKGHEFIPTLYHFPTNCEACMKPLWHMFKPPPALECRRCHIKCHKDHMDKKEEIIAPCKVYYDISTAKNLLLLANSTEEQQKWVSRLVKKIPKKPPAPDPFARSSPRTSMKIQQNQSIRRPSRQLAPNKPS

[24] = target: Angiopoietin-1 receptor (Homo sapiens) (UniProt Q02763); assay: Inhibition of human recombinant GST-tagged TEK cytoplasmic domain (817 to 1101 residues) expressed in baculovirus expression system at 1 uM
Chain of Angiopoietin-1 receptor (Homo sapiens) (Q02763 whole entry, the tested form may be a part): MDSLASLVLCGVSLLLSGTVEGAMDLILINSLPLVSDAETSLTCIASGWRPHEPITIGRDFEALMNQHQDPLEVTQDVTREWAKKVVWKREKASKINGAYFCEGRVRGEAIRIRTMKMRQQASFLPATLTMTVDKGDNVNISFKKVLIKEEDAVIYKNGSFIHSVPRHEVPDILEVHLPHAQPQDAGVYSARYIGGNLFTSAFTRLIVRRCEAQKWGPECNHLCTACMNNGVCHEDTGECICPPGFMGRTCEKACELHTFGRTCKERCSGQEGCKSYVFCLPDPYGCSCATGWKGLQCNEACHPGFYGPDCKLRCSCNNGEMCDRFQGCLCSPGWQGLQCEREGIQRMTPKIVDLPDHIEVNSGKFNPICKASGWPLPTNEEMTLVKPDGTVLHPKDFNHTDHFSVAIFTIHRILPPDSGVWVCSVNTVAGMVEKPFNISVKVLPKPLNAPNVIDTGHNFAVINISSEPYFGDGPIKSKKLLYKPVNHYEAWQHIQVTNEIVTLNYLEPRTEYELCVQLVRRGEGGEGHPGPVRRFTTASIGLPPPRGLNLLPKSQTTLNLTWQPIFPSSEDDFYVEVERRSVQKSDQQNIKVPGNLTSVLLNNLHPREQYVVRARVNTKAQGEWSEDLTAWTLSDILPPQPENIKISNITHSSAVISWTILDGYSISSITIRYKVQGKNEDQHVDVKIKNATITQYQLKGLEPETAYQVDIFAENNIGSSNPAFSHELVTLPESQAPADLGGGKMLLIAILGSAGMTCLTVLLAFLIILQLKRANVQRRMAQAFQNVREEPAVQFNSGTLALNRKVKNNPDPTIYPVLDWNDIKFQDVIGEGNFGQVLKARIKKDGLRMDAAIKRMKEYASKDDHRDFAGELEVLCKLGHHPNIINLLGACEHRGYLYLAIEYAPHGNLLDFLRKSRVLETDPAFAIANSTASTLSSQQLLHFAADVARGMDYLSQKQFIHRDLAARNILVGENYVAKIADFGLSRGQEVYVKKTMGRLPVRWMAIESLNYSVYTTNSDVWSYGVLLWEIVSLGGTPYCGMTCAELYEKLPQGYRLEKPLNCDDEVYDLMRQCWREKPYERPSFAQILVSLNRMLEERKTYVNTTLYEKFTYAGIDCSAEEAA

[25] = target: Dual specificity protein kinase TTK (Homo sapiens) (UniProt P33981); assay: Inhibition of human recombinant full-length GST-tagged TTK expressed in baculovirus expression system at 1 uM
Chain of Dual specificity protein kinase TTK (Homo sapiens) (P33981 whole entry): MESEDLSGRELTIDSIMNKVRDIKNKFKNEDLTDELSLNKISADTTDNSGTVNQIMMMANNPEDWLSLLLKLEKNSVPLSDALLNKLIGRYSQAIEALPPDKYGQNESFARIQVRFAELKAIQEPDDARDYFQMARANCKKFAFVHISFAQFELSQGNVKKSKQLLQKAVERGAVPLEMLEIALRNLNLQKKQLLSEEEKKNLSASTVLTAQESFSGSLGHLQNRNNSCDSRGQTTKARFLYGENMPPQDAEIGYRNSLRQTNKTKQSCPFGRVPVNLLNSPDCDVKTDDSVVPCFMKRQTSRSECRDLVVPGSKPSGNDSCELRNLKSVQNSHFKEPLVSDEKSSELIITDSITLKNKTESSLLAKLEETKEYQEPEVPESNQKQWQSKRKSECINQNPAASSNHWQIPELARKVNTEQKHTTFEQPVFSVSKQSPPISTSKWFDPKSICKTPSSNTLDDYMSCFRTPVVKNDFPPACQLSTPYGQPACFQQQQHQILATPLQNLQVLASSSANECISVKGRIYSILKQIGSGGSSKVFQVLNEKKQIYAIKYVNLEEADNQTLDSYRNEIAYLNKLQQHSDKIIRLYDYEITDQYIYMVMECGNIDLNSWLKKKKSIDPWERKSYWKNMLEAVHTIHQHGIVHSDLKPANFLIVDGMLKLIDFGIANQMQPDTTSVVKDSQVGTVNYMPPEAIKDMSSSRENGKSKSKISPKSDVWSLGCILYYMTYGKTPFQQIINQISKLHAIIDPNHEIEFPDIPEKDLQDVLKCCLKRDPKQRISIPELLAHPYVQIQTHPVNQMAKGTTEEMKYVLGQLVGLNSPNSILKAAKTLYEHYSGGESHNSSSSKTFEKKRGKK

[26] = target: Aurora kinase C (Homo sapiens, UniProt Q9UQB9); assay: Inhibition of human recombinant full-length N-terminal GST-tagged Aurora C (1 to 275 end residues) expressed in baculovirus expression system using GLRRASLG-NH2 as substrate after 20 mins in presence of [gamma-33P]-ATP by liquid scintillation counting

T1 sequence (Q96GD4 whole entry, the tested form may be a part): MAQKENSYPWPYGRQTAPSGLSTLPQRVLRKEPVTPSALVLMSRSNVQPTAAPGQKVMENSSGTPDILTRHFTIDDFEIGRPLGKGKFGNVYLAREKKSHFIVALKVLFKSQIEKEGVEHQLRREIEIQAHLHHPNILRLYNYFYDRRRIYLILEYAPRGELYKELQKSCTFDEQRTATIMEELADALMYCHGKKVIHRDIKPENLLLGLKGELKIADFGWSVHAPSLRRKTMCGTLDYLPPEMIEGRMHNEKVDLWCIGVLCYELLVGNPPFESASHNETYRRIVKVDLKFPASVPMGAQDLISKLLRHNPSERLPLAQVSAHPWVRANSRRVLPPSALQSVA

Structure (SMILES): NC(=O)CCC(=O)Nc1cccc(-c2n[nH]c3ccc(NS(=O)(=O)c4ccccc4)cc23)c1
- GI50 [1]: > 20000 nM
- IC50 [2]: 49 nM

Structure (SMILES): CC(C)OC(=O)CCC(=O)Nc1cccc(-c2n[nH]c3ccc(NS(=O)(=O)c4ccccc4)cc23)c1
- GI50 [1]: > 20000 nM
- IC50 [2]: 220 nM

Structure (SMILES): O=C(O)/C=C\C(=O)Nc1cccc(-c2n[nH]c3ccc(NS(=O)(=O)c4ccccc4)cc23)c1
- GI50 [1]: > 20000 nM
- inhibition [3]: 31%
- inhibition [4]: 89%
- inhibition [5]: 94%
- inhibition [6]: 21%
- inhibition [7]: 17%
- inhibition [8]: 16%
- inhibition [9]: 8%
- inhibition [10]: 1%
- inhibition [11]: 85%
- inhibition [12]: 64%
- inhibition [13]: 39%
- inhibition [14]: 48%
- inhibition [15]: -4%
- inhibition [16]: 58%
- inhibition [17]: 24%
- inhibition [18]: -2%
- inhibition [19]: 1%
- inhibition [20]: 20%
- inhibition [21]: 10%
- inhibition [22]: 61%
- inhibition [23]: 8%
- inhibition [24]: 48%
- inhibition [25]: 93%
- IC50 [2]: 15 nM

Structure (SMILES): O=C(O)/C=C\C(=O)Nc1cccc(-c2n[nH]c3ccc(NS(=O)(=O)c4ccc(F)cc4)cc23)c1
- GI50 [1]: > 20000 nM
- IC50 [2]: 30 nM

Structure (SMILES): O=C(O)/C=C/C(=O)Nc1cccc(-c2n[nH]c3ccc(NS(=O)(=O)c4ccccc4)cc23)c1
- GI50 [1]: > 20000 nM

Structure (SMILES): CCOC(=O)CCC(=O)Nc1cccc(-c2n[nH]c3ccc(NS(=O)(=O)c4ccccc4)cc23)c1
- GI50 [1]: 1900 nM
- IC50 [2]: 64 nM

Structure (SMILES): O=C(O)[C@]1(Cc2cccc(Nc3nccs3)n2)CC[C@@H](Oc2cccc(Cl)c2F)CC1 [MK-5108]
- IC50 [26]: 12 nM

Structure (SMILES): O=C(O)/C=C\C(=O)Nc1cccc(-c2n[nH]c3ccc(NS(=O)(=O)c4ccc([N+](=O)[O-])cc4)cc23)c1
- GI50 [1]: > 20000 nM
- IC50 [2]: 26 nM

Structure (SMILES): COC(=O)CCC(=O)Nc1cccc(-c2n[nH]c3ccc(NS(=O)(=O)c4ccccc4)cc23)c1
- GI50 [1]: 12000 nM
- IC50 [2]: 48 nM

Structure (SMILES): O=C(O)CCC(=O)Nc1cccc(-c2n[nH]c3ccc(NS(=O)(=O)c4ccccc4)cc23)c1
- GI50 [1]: > 20000 nM
- IC50 [2]: 28 nM

Structure (SMILES): Cc1ccc(S(=O)(=O)Nc2ccc3[nH]nc(-c4cccc(NC(=O)/C=C\C(=O)O)c4)c3c2)cc1
- GI50 [1]: > 20000 nM
- IC50 [2]: 32 nM

Structure (SMILES): O=C(O)/C=C\C(=O)Nc1cccc(-c2n[nH]c3ccc(NS(=O)(=O)c4ccc(-c5ccccc5)cc4)cc23)c1
- GI50 [1]: > 20000 nM

Structure (SMILES): CC(C)(C)c1ccc(S(=O)(=O)Nc2ccc3[nH]nc(-c4cccc(NC(=O)/C=C\C(=O)O)c4)c3c2)cc1
- GI50 [1]: > 20000 nM

Structure (SMILES): CC#CC(=O)Nc1cccc(-c2n[nH]c3ccc(NS(=O)(=O)c4ccccc4)cc23)c1
- GI50 [1]: 3600 nM
- IC50 [2]: > 1000 nM

Structure (SMILES): COc1ccc(S(=O)(=O)Nc2ccc3[nH]nc(-c4cccc(NC(=O)/C=C\C(=O)O)c4)c3c2)cc1
- GI50 [1]: > 20000 nM
- IC50 [2]: 31 nM
